From patent publication US10375956B2, “Herbicidally active 2-(substituted-phenyl)-cyclopentane-1,3-dione compounds and derivatives thereof” (Syngenta Limited, priority 2013, dated 2019)

Assays:
Assay type in all cases: in vivo
[1] = system: Zea mays (ZEAMX, corn/maize); assay: Test 1 glasshouse assay, post-emergence herbicidal activity; settings: 312 h, post-emergence (Example 1B Table 1), after 13 days, read-out: Percentage phytotoxicity ZEAMX
In short: (§1)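 Plants sprayed post-emergence after 8 days' growth with active ingredient in acetone/water (50:50) plus 0.5% Tween 20; glasshouse at 24/16° C day/night, 14 h light, 65% humidity. Visual percentage phytotoxicity scored 13 days later (100% = total damage, 0% = none).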

Setaria faberi (SETFA) = assay: as above; settings: 312 h, post-emergence (Example 1B Table 1), after 13 days, read-out: Percentage phytotoxicity SETFA
In short: as §1

[2] = system: Amaranthus retroflexus (AMARE); assay: as above; settings: 312 h, post-emergence (Example 1B Table 1), after 13 days, read-out: Percentage phytotoxicity AMARE
In short: as §1

[3] = system: Abutilon theophrasti (ABUTH); assay: as above; settings: 312 h, post-emergence (Example 1B Table 1), after 13 days, read-out: Percentage phytotoxicity ABUTH
In short: as §1

Avena fatua (AVEFA) [4] = assay: as above; settings: 312 h, post-emergence (Example 1B Table 2), after 13 days, read-out: Percentage phytotoxicity AVEFA
In short: (§2)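 Post-emergence: plants sprayed after 8 days' growth in a glasshouse (24/16 °C day/night, 14 h light, 65% humidity) with compound in acetone/water 50:50 containing 0.5% Tween 20. Phytotoxicity was scored visually 13 days later as percent damage (0 = none, 100 = total).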

Lolium perenne (LOLPE) [5] = assay: as above; settings: 312 h, post-emergence (Example 1B Table 2), after 13 days, read-out: Percentage phytotoxicity LOLPE
In short: as §2

[6] = system: Triticum aestivum (TRZAW, winter wheat); assay: as above; settings: 312 h, post-emergence (Example 1B Table 2), after 13 days, crop plant, read-out: Percentage phytotoxicity TRZAW
In short: as §2

Avena fatua (AVEFA) [7] = assay: Test 2 glasshouse assay (IF50 formulation, X-77), post-emergence herbicidal activity; settings: 360 h, 15 DAA, visual score, read-out: Post-emergence herbicidal activity (percentage phytotoxicity) AVEFA; for pest or weed control at 30 g/ha: application rate 30 g/ha; for pest or weed control at 125 g/ha: application rate 125 g/ha
In short: (§3)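 Plants in soil pots were sprayed 1 day (pre-emergence) or ~12 days (post-emergence) after sowing with IF50 formulation diluted in 0.2% v/v X-77. Cool species were grown at 20/16 °C day/night, 16 h light, 65% humidity. Visual % phytotoxicity was scored at 20DAA (pre) or 15DAA (post).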

Lolium perenne (LOLPE) [8] = assay: as above; settings: 360 h, 15 DAA, visual score, read-out: Post-emergence herbicidal activity (percentage phytotoxicity) LOLPE; for pest or weed control at 30 g/ha: application rate 30 g/ha; for pest or weed control at 125 g/ha: application rate 125 g/ha
In short: as §3

Work on `C#CCC1CC(=O)C(c2c(Cl)cc(-c3ccc(F)cc3F)cc2OC)C1=O` (stereo not shown) [Compound A12] yielded a pest or weed control at 30 g/ha [1] of 100%, a pest or weed control at 250 g/ha [1] of 100% and a pest or weed control at 30 g/ha (Setaria faberi (SETFA)) of 100%. For the same compound, the pest or weed control at 250 g/ha (Setaria faberi (SETFA)) was 100%, the pest or weed control at 30 g/ha [2] was 30% and the pest or weed control at 250 g/ha [2] was 80%. It also gave a pest or weed control at 30 g/ha [3] of 50%, a pest or weed control at 250 g/ha [3] of 80% and a pest or weed control at 62.5 g/ha (Avena fatua (AVEFA) [4]) of 60%. For the same compound, the pest or weed control at 250 g/ha (Avena fatua (AVEFA) [4]) was 100%, the pest or weed control at 62.5 g/ha (Lolium perenne (LOLPE) [5]) was 70% and the pest or weed control at 250 g/ha (Lolium perenne (LOLPE) [5]) was 100%. For the same compound, the plant injury at 62.5 g/ha [6] was 70%, the plant injury at 250 g/ha [6] was 80% and the pest or weed control at 30 g/ha (Avena fatua (AVEFA) [7]) was 10%. The pest or weed control at 125 g/ha (Avena fatua (AVEFA) [7]) was 80%, the pest or weed control at 30 g/ha (Lolium perenne (LOLPE) [8]) was 30% and the pest or weed control at 125 g/ha (Lolium perenne (LOLPE) [8]) was 90%.
With `C#CCC1CC(=O)C(c2c(Cl)cc(-c3ccc(F)c(F)c3)cc2OC)C1=O` (stereo not shown) [Compound A13] the pest or weed control at 30 g/ha [1] was 100%, the pest or weed control at 250 g/ha [1] was 100% and the pest or weed control at 30 g/ha (Setaria faberi (SETFA)) was 100%. It also gave a pest or weed control at 250 g/ha (Setaria faberi (SETFA)) of 100%, a pest or weed control at 30 g/ha [2] of 60% and a pest or weed control at 250 g/ha [2] of 90%. The pest or weed control at 30 g/ha [3] was 70%, the pest or weed control at 250 g/ha [3] was 80% and the pest or weed control at 62.5 g/ha (Avena fatua (AVEFA) [4]) was 100%. It also gave a pest or weed control at 250 g/ha (Avena fatua (AVEFA) [4]) of 100%, a pest or weed control at 62.5 g/ha (Lolium perenne (LOLPE) [5]) of 90% and a pest or weed control at 250 g/ha (Lolium perenne (LOLPE) [5]) of 100%. For the same compound, the plant injury at 62.5 g/ha [6] was 80%, the plant injury at 250 g/ha [6] was 80% and the pest or weed control at 30 g/ha (Avena fatua (AVEFA) [7]) was 30%. The pest or weed control at 125 g/ha (Avena fatua (AVEFA) [7]) was 80%, the pest or weed control at 30 g/ha (Lolium perenne (LOLPE) [8]) was 10% and the pest or weed control at 125 g/ha (Lolium perenne (LOLPE) [8]) was 80%.
With `C#CCC1CC(=O)C(c2c(F)cc(-c3ccc(Cl)cc3)cc2OC)C1=O` (stereo not shown) [Compound A14] the pest or weed control at 62.5 g/ha ([1]; 62.5 g/ha) was 100%, the pest or weed control at 250 g/ha [1] was 100% and the pest or weed control at 62.5 g/ha (Setaria faberi (SETFA); 62.5 g/ha) was 90%. For the same compound, the pest or weed control at 250 g/ha (Setaria faberi (SETFA)) was 100%, the pest or weed control at 62.5 g/ha ([2]; 62.5 g/ha) was 50% and the pest or weed control at 250 g/ha [2] was 60%. It also gave a pest or weed control at 62.5 g/ha ([3]; 62.5 g/ha) of 0%, a pest or weed control at 250 g/ha [3] of 0% and a pest or weed control at 250 g/ha (Avena fatua (AVEFA) [4]) of 100%. The pest or weed control at 250 g/ha (Lolium perenne (LOLPE) [5]) was 80%, the plant injury at 250 g/ha [6] was 70% and the pest or weed control at 125 g/ha (Avena fatua (AVEFA) [7]) was 40%. The pest or weed control at 125 g/ha (Lolium perenne (LOLPE) [8]) was 20%.
